For nine compounds, IC50 results are on record in EP2794556B1, “BIS-(ARYL/HETEROARYL)-METHYLENE COMPOUNDS, PHARMACEUTICAL COMPOSITIONS CONTAINING SAME AND THEIR USE FOR TREATING CANCER” (Gleason, James L., priority 2011, dated 2013).

Broadly, the IC50 is the concentration needed to halve the response being measured.

The assay concerns the target T1, HDAC6 (Homo sapiens, UniProt Q9UBN7).
T1 sequence (Q9UBN7 1-1215): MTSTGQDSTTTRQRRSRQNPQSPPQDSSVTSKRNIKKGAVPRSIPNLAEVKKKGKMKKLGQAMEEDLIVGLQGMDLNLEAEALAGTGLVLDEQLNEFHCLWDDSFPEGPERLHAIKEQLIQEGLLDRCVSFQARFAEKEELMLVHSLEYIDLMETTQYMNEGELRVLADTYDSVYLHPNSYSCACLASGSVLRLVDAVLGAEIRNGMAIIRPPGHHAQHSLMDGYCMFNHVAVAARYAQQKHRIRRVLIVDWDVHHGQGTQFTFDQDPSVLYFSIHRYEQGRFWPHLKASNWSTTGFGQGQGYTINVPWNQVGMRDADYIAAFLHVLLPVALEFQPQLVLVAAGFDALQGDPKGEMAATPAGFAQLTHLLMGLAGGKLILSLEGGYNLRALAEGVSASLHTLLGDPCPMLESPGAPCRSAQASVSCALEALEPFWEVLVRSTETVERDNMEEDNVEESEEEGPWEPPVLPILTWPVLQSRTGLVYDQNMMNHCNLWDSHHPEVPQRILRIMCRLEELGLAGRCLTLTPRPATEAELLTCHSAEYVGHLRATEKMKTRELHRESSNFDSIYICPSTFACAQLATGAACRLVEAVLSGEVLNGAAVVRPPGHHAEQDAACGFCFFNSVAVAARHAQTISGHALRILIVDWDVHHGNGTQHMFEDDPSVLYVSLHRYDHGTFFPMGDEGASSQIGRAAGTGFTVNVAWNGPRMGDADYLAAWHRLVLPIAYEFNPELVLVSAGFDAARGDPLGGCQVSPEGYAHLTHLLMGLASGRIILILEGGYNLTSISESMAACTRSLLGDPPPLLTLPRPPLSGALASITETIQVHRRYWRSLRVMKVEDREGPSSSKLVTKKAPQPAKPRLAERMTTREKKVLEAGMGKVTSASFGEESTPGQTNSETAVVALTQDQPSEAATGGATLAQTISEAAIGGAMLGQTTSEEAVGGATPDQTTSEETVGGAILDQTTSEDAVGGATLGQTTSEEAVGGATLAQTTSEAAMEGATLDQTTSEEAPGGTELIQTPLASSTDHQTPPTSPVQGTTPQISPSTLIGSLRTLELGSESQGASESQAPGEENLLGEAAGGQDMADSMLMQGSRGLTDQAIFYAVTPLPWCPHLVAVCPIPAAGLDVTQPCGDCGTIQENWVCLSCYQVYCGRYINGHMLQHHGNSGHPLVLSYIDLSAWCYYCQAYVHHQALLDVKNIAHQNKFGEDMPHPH
As to the kind of experiment: Fluorogenic HDAC inhibition assay, purified enzyme.
Protocol: Fluorogenic HDAC inhibition assay. Boc-Lys(Ac)-7-amino-4-methylcoumarin (Boc-Lys(Ac)-AMC) was used as substrate for the HDAC assays. […] Trypsin was used to stop the reaction, releasing free AMC. The trypsin solution was prepared as follow: trypsin was dissolved in HDAC buffer to give a concentration of 10 mg/mL. Release of AMC was monitored by measuring the fluorescence at 460 nm (lex = 390 nm) with a microplate reader (SpectraMax Gemini) at 37 °C. The AMC signals were recorded against a blank with buffer, substrate and trypsin but without the enzyme. All experiments were carried out at least in triplicate.
For standard HDAC assays, 50 µL of HDAC buffer was mixed with 10 µL of diluted enzyme solution in HDAC buffer at room temperature. The HDAC reaction was started by adding 40 µL of substrate solution in HDAC buffer followed by 30 min of incubation with stirring at 37 °C. The reaction was stopped by adding 100 µL of trypsin solution. After a 10 min incubation with stirring at 37 °C, the release of AMC was monitored by measuring the fluorescence. For HDAC inhibition assays, inhibitor diluted in 50 µL of HDAC buffer was mixed with 10 µL of diluted enzyme solution in HDAC buffer at room temperature. The HDAC reaction was started by adding 40 µL of substrate solution in HDAC buffer followed by 30 min of incubation with stirring at 37 °C. The reaction was stopped by adding 100 µL of trypsin solution. After a 10 min incubation with stirring at 37 °C, the release of AMC was monitored by measuring the fluorescence.
Regarding `CCC(CC)(c1ccc(OCC(O)CCC(=O)NO)c(C)c1)c1ccc(OCC(O)C(C)(C)C)c(C)c1` (stereo not drawn) [DK-305, N,4-dihydroxy-5-(4-(3-(4-(2-hydroxy-3,3-dimethylbutoxy)-3-methylphenyl)pentan-3-yl)-2-methylphenoxy)pentanamide], the IC50 was determined as 29.2 µM.
The compound `CCC(CC)(c1ccc(OCCCCCC(=O)NO)c(C)c1)c1ccc(OCC(O)C(C)(C)C)c(C)c1` (stereo not drawn) [DK-319, N-hydroxy-6-(4-(3-(4-(2-hydroxy-3,3-dimethylbutoxy)-3-methylphenyl)pentan-3-yl)-2-methylphenoxy)hexanamide] displayed an IC50 of 2.65 µM.
In the case of `CCC(CC)(c1ccc(OCCCCC(=O)NO)c(C)c1)c1ccc(OCC(O)C(C)(C)C)c(C)c1` (stereo not drawn) [DK-320, N-hydroxy-5-(4-(3-(4-(2-hydroxy-3,3-dimethylbutoxy)-3-methylphenyl)pentan-3-yl)-2-methylphenoxy)pentanamide] it was 5.03 µM; in that of `CCC(CC)(c1ccc(OCCCCCCC(=O)NO)c(C)c1)c1ccc(OCC(O)C(C)(C)C)c(C)c1` (stereo not drawn) [DK-347, N-hydroxy-7-(4-(3-(4-(2-hydroxy-3,3-dimethylbutoxy)-3-methylphenyl)pentan-3-yl)-2-methylphenoxy)heptanamide], 3.94 µM; in that of `CCC(CC)(c1ccc(OCC(O)C(C)(C)C)c(C)c1)c1ccc(C(=O)NCCCCCC(=O)NO)c(C)c1` (stereo not drawn) [DK-361, 4-(3-(4-(2-hydroxy-3,3-dimethylbutoxy)-3-methylphenyl)pentan-3-yl)-N-(6-(hydroxyamino)-6-oxohexyl)-2-methylbenzamide], 3.4 µM.
The compound `CCC(CC)(c1ccc(OCC(O)C(C)(C)C)c(C)c1)c1ccc(C(=O)NCCCCCCC(=O)NO)c(C)c1` (stereo not drawn) [DK-362, 4-(3-(4-(2-hydroxy-3,3-dimethylbutoxy)-3-methylphenyl)pentan-3-yl)-N-(7-(hydroxyamino)-7-oxoheptyl)-2-methylbenzamide] showed an IC50 of 1.08 µM.
In the case of `CCC(CC)(c1ccc(OCCCCC(=O)NO)cc1)c1ccc(OCC(O)C(C)(C)C)c(C)c1` (stereo not drawn) [DK-381, N-hydroxy-5-(4-(3-(4-(2-hydroxy-3,3-dimethylbutoxy)-3-methylphenyl)pentan-3-yl)phenoxy)pentanamide] it was 3.13 µM; in that of `CCC(CC)(c1ccc(OCCCCC(=O)NO)cc1)c1ccc(OCCC(C)(C)C)c(C)c1` [DK-405, 5-(4-(3-(4-(3,3-dimethylbutoxy)-3-methylphenyl)pentan-3-yl)phenoxy)-N-hydroxypentanamide], 1.97 µM; in that of `CCC(CC)(c1ccc(C(=O)NCCCCCC(=O)NO)cc1)c1ccc(OCC(O)C(C)(C)C)c(C)c1` (stereo not drawn) [DK-406, 4-(3-(4-(2-hydroxy-3,3-dimethylbutoxy)-3-methylphenyl)pentan-3-yl)-N-(6-(hydroxyamino)-6-oxohexyl)benzamide], 0.557 µM.
